Laboratory results reported in patent publication US11412737B2, “Mixtures of beflubutamid or optically enriched forms thereof with a second herbicide” (FMC Corporation, priority 2016, dated 2022).

Experiments:
Palmer amaranth (AMAPA) = experiment: pre-emergence test, weed control; format: in vivo, Amaranthus palmeri; settings: pre-emergent, 28 DAT; for percentage of weed control, AMAPA: (−)-BFL >95% e.e., rate g ai/ha by row: r6 62, r7 125, r8 125, r9 250, r10 445, r11 890, r12 45, r13 90, r14 62+125, r15 125+125, r16 62+250, r17 125+250, r18 62+445, r19 125+445, r20 62+890, r21 125+890, r22 62+45, r23 125+45, r24 62+90, r25 125+90
How it was run: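 Steps: sow seed in furrows and cover with soil, water well, apply diluted compound over the soil surface (30 gallons per acre), move flats to the greenhouse. Evaluate each species at 28 DAT, wheat also at 21 DAT, as percent control versus untreated flats.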

Annual bluegrass (POAAN) = experiment: post-emergence test, weed control; format: in vivo, Poa annua; settings: post-emergent, 28 DAT, height 1-2 cm; rate g ai/ha by row: r7 94, r8 125, r9 188, r10 125, r11 250, r12 94+125, r13 125+125, r14 188+125, r15 94+250, r16 125+250, r17 188+250
Experimental: (§1) Test compositions containing the test compounds were diluted with water to provide the appropriate test rate concentrations.
(§2) For post-emergence testing, seeds of each species for each rate of application of each herbicide solution were planted in 7.5 cm×7.5 cm plastic pots filled with potting soil. The seeds were germinated and the resulting plants were allowed to grow in a greenhouse until they reached a growth stage, such as height, suitable for testing. Treatments were applied using compressed air in a track spray chamber at 30 gallons/acre (280 L/ha) using a TeeJet 8001E nozzle at 40 psi (2.76 bars). Pots of post-emergent treated plants were returned to the greenhouse and not watered for 24 hours after treatment. Thereafter they were regularly watered and fertilized for the duration of the test.
(§3) The control of weeds was evaluated in each experimental test at 21 for wheat and 28 days after treatment (DAT) for all species. Data were analyzed using Minitab software at 95% confidence interval. The results, shown as an average of the replications, were compared with results observed in untreated control flats in the same tests. Percent control was determined by a method similar to the 0 to 100 rating system disclosed in “Research Methods in Weed Science,” 2nd ed., B. Truelove, Ed.; Southern Weed Science Society; Auburn University, Auburn, Ala., 1977. The rating system is as follows in Table 1.

Green foxtail (SETVI) = experiment: post-emergence test, weed control; format: in vivo, Setaria viridis; settings: post-emergent, 28 DAT, height 4-5 cm, rate g ai/ha by row: r7 94, r8 125, r9 188, r10 125, r11 250, r12 94+125, r13 125+125, r14 188+125, r15 94+250, r16 125+250, r17 188+250
[1] = tested on: Littleseed canarygrass (PHAMI); experiment: post-emergence test, weed control; format: in vivo, Phalaris minor; settings: post-emergent, 28 DAT, height 7-8 cm, rate g ai/ha by row: r25 94, r26 125, r27 188, r28 125, r29 250, r30 94+125, r31 125+125, r32 188+125, r33 94+250, r34 125+250, r35 188+250
Experimental: as §1, §2, §3

Cheat grass (BROSE) = experiment: post-emergence test, weed control; format: in vivo; settings: post-emergent, 28 DAT, height 7 cm; rate g ai/ha by row: r7 94, r8 125, r9 188, r10 125, r11 250, r12 94+125, r13 125+125, r14 188+125, r15 94+250, r16 125+250, r17 188+250
Experimental: as §1, §2, §3

Common ragweed (AMBEL) = experiment: post-emergence test, weed control; format: in vivo; settings: post-emergent, 28 DAT, height 3-4 cm, rate g ai/ha by row: r7 94, r8 125, r9 188, r10 125, r11 250, r12 94+125, r13 125+125, r14 188+125, r15 94+250, r16 125+250, r17 188+250
Experimental: as §1, §2, §3

Large crabgrass (DIGSA) = experiment: post-emergence test, weed control; format: in vivo; settings: post-emergent, 28 DAT; for percentage of weed control, DIGSA: height 3-5 cm, rate g ai/ha by row: r25 94, r26 125, r27 188, r28 125, r29 250, r30 94+125, r31 125+125, r32 188+125, r33 94+250, r34 125+250, r35 188+250
Experimental: as §1, §2, §3

Redrice (ORYSA) = experiment: post-emergence test, weed control; format: in vivo; settings: post-emergent, 28 DAT, height 8 cm, rate g ai/ha by row: r25 94, r26 125, r27 188, r28 125, r29 250, r30 94+125, r31 125+125, r32 188+125, r33 94+250, r34 125+250, r35 188+250
Experimental: as §1, §2, §3

Rice flatsedge (CYPIR) = experiment: post-emergence test, weed control; format: in vivo; settings: post-emergent, 28 DAT, height 1-2 cm; rate g ai/ha by row: r25 94, r26 125, r27 188, r28 125, r29 250, r30 94+125, r31 125+125, r32 188+125, r33 94+250, r34 125+250, r35 188+250
Experimental: as §1, §2, §3

Shattercane (SOBIA) = experiment: post-emergence test, weed control; format: in vivo; settings: post-emergent, 28 DAT, height 8 cm, rate g ai/ha by row: r25 94, r26 125, r27 188, r28 125, r29 250, r30 94+125, r31 125+125, r32 188+125, r33 94+250, r34 125+250, r35 188+250
Experimental: as §1, §2, §3

Wild oat (AVEFA) = experiment: post-emergence test, weed control; format: in vivo, Avena fatua; settings: post-emergent, 28 DAT; for percentage of weed control, AVEFA: height 11 cm, rate g ai/ha by row: r25 94, r26 125, r27 188, r28 125, r29 250, r30 94+125, r31 125+125, r32 188+125, r33 94+250, r34 125+250, r35 188+250; for control of wild oats (AVEFA): DCI at 250 g/ha, combination of both
Experimental: as §1, §2, §3

CC1(C)CON(Cc2ccc(Cl)cc2Cl)C1=O [DCI, 2-(2,4-dichlorophenyl)methyl-4,4-dimethyl-3-isoxazolidinone]
percentage of weed control, AMAPA (Palmer amaranth (AMAPA); 125 g ai/ha): 94%
percentage of weed control, AMAPA (Palmer amaranth (AMAPA); 250 g ai/ha): 99%
control of Palmer amaranth (AMAPA) (Palmer amaranth (AMAPA); BFL at 125 g/ha, DCI at 125 g/ha, combination of both): 30%
percentage of weed control, POAAN (Annual bluegrass (POAAN)): 0%
percentage of weed control, SETVI (Green foxtail (SETVI); 125 g ai/ha): 6%
percentage of weed control, SETVI (Green foxtail (SETVI); 250 g ai/ha): 5%
percentage of weed control, PHAMI ([1]; 125 g ai/ha): 4%
percentage of weed control, PHAMI ([1]; 250 g ai/ha): 2%
percentage of weed control, BROSE (Cheat grass (BROSE)): 0%
percentage of weed control, AMBEL (Common ragweed (AMBEL); 125 g ai/ha): 73%
percentage of weed control, AMBEL (Common ragweed (AMBEL); 250 g ai/ha): 77%
percentage of weed control, DIGSA (Large crabgrass (DIGSA); 125 g ai/ha): 17%
percentage of weed control, DIGSA (Large crabgrass (DIGSA); 250 g ai/ha): 22%
control of large crabgrass (DIGSA) (Large crabgrass (DIGSA); BFL at 188 g/ha, DCI at 125 g/ha, combination of both): 17%
percentage of weed control, ORYSA (Redrice (ORYSA); 125 g ai/ha): 26%
percentage of weed control, ORYSA (Redrice (ORYSA); 250 g ai/ha): 42%
percentage of weed control, CYPIR (Rice flatsedge (CYPIR)): 0%
percentage of weed control, SOBIA (Shattercane (SOBIA); 125 g ai/ha): 1%
percentage of weed control, SOBIA (Shattercane (SOBIA); 250 g ai/ha): 4%
percentage of weed control, AVEFA (Wild oat (AVEFA); 125 g ai/ha): 60%
percentage of weed control, AVEFA (Wild oat (AVEFA); 250 g ai/ha): 61%
control of wild oats (AVEFA) (Wild oat (AVEFA); BFL at 125 g/ha): 61%
control of wild oats (AVEFA) (Wild oat (AVEFA); BFL at 188 g/ha): 61%
